How the values were obtained:
[1] = tested on: MCF7; test: MTT test, cytotoxic activity on non-clonogenic cell lines; type: cell-based; conditions: Homo sapiens, 10^−5 M, 72 hours of incubation, control condition = 100%, mean value, read-out: mean optical density as percentage of control, MCF7
How it was run: (§1)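 Compounds span 10^−5 to 10^−10 M, with solvent-treated wells as control, and the formazan is quantified by absorbance after DMSO solubilization.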

[2] = tested on: T-47D; test: as above; type: cell-based; conditions: Homo sapiens, T47D; 10^−5 M, 72 hours of incubation, control condition = 100%, mean value; read-out: mean optical density as percentage of control, T-47D
How it was run: as §1

[3] = tested on: HCT-15; test: as above; type: cell-based; conditions: Homo sapiens, 10^−5 M, 72 hours of incubation, control condition = 100%, mean value, read-out: mean optical density as percentage of control, HCT-16
How it was run: as §1

[4] = tested on: A-427; test: as above; type: cell-based; conditions: Homo sapiens, 10^−5 M, 72 hours of incubation, control condition = 100%, mean value, read-out: mean optical density as percentage of control, A-427
How it was run: as §1

[5] = tested on: U-87MG; test: as above; type: cell-based; conditions: Homo sapiens, U-87 MG; 10^−5 M, 72 hours of incubation, control condition = 100%, mean value; read-out: mean optical density as percentage of control, U-87MG
How it was run: as §1

[6] = tested on: PC-3; test: as above; type: cell-based; conditions: Homo sapiens, 10^−5 M, 72 hours of incubation, control condition = 100%, mean value, read-out: mean optical density as percentage of control, PC-3
How it was run: as §1

[7] = tested on: U-373MG; test: as above; type: cell-based; conditions: Homo sapiens, U373 MG; 10^−5 M, 72 hours of incubation, control condition = 100%, mean value; read-out: mean optical density as percentage of control, U-373MG
How it was run: as §1

[8] = tested on: A549; test: as above; type: cell-based; conditions: Homo sapiens, 10^−5 M, 72 hours of incubation, control condition = 100%, mean value, read-out: mean optical density as percentage of control, A549
How it was run: as §1

[9] = tested on: LoVo; test: as above; type: cell-based; conditions: Homo sapiens, 10^−5 M, 72 hours of incubation, control condition = 100%, mean value, read-out: mean optical density as percentage of control, LoVo
How it was run: as §1

[10] = Determination of the maximum tolerated dose (MTD); conditions: B6D2F1/Jico, mouse, in vivo, ip; single intraperitoneal administration, doses 2.5 to 160 mg/kg, survival over 14 days
How it was run: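 Mice were 4- to 6-week-old B6D2F1/Jico. They received a single intraperitoneal dose of 2.5 to 160 mg/kg, and survival and body weight were followed for 14 days. MTD is given in mg/kg and is capped at 160 mg/kg by default.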

[11] = tested on: J82; test: MTT test, cytotoxic activity on non-clonogenic cell lines; type: cell-based; conditions: Homo sapiens, 10^−5 M, 72 hours of incubation, control condition = 100%, mean value, read-out: mean optical density as percentage of control, J82
How it was run: (§2)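 Human bladder cancer lines were seeded at 20 000–50 000 cells/ml and, after 24 h, exposed to compounds at 10^−5 to 10^−10 M against a solvent control. Formazan was dissolved in DMSO and viability was read by spectrophotometric optical density.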

[12] = tested on: T24; test: as above; type: cell-based; conditions: Homo sapiens, T-24; 10^−5 M, 72 hours of incubation, control condition = 100%, mean value; read-out: mean optical density as percentage of control, T24
How it was run: as §2

[13] = tested on: SW1088; test: as above; type: cell-based; conditions: Homo sapiens, 10^−5 M, 72 hours of incubation, control condition = 100%, mean value, read-out: mean optical density as percentage of control, SW1088
How it was run: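 Human astrocytoma SW1088 cells seeded, grown 24 h at 37° C, 5% CO2, then exposed to compounds at 10^−5 to 10^−10 M versus solvent control. Viability by MTT reduction: 3 h MTT incubation, formazan dissolved in DMSO and read by spectrophotometry.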

Row | SMILES | viability at 10 µM [1] [%] | viability at 10 µM [2] [%] | viability at 10 µM [3] [%] | viability at 10 µM [4] [%] | viability at 10 µM [5] [%] | viability at 10 µM [6] [%] | viability at 10 µM [7] [%] | viability at 10 µM [8] [%] | viability at 10 µM [9] [%] | MTD at 14 day [10] [mg/kg] | viability at 10 µM [11] [%] | viability at 10 µM [12] [%] | viability at 10 µM [13] [%]
1 | COc1ccc(-c2cn(CC#N)c3c(OC)ccc(OC)c3c2=O)cc1 [CRL8413, [5,8-Dimethoxy-3-(4-methoxyphenyl)-4-oxo-1,4-dihydro-1-quinolinyl]acetonitrile] | 67.2 | 112 | 65.9 | 73.3 | 56 | 63.4 | 66.4 | 48.7 | 85.6 | > 160 | 88.4 | 71.8 | 83.7
2 | CCc1ccc(OC)c2c1c(=O)c(-c1ccc(OC)cc1)cn2C [CRL8414, 5-Ethyl-8-methoxy-3-(4-methoxyphenyl)-1-methyl-1,4-dihydro-4-quinolinone] | 104 | 96.2 | 83.4 | 82.2 | 81.2 | 94.3 | 81.7 | 71.8 | 84.2 | > 160 | 110 | 97.5 | 94.4
3 | COc1ccc(-c2cn(CCCC#N)c3cc(OC)cc(OC)c3c2=O)cc1 [CRL8420, 4-[5,7-Dimethoxy-3-(4-methoxyphenyl)-4-oxo-1,4-dihydro-1-quinolinyl]butanenitrile] | 103 | 104 | 109 | 102 | 92.9 | 86 | 96.6 | 94.5 | 81.2 | > 160 | 92.3 | 111 | 117
4 | COc1ccc(-c2cn(C)c3cc(OC)cc(NCc4ccccc4)c3c2=O)cc1 [CRL8424, 5-Benzylamino-7-methoxy-3-(4-methoxyphenyl)-1-methyl-1,4-dihydro-4-quinolinone] | 95.4 | 108 | 49.8 | 72.7 | 87.9 | 108 | 82.5 | 111 | 69.8 | > 160 | 77.9 | 102 | 82.7
5 | COc1ccc(-c2cn(C)c3cc(OC)cc(N4CCCCC4)c3c2=O)cc1 [CRL8425, 7-Methoxy-3-(4-methoxyphenyl)-1-methyl-5-piperidino-1,4-dihydro-4-quinolinone] | 102 | 97.3 | 78.9 | 81.9 | 92.6 | 88.2 | 82.6 | 80.2 | 71 | > 160 | 71.9 | 98.2 | 85.4

From patent US6645983B1, “Pharmaceutical compositions comprising 4-quinolones for treating cancers” (Laboratoire L. Lafon, priority 1999, dated 2003)
